Experimental data from the supplement of paper PMC11061612.

Experiments:
[1] = test system: ATN-1 (T-Lymphoblastic Leukemia); assay: Bliss excess, mean over the matrix (fraction); higher = more synergy
Summary of the method: (§1)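 After 24 hours at 37°C and 5% CO2 in 1536-well plates, cells in DMEM/F12 or RPMI plus 10% FBS received two-drug dose matrices for 72 hours. Viability came from CellTiter-Glo 2.0 luminescence and was scaled as inhibition, anchored at 0 by vehicle wells and at 1 by blank wells. Combination Emax is taken as the second-highest inhibition in the matrix, and Bliss excess as the observed combination effect less EA + EB − EA·EB, with EA and EB the single-agent effects.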

[2] = test system: Daudi (Burkitt's Lymphoma); assay: as above
Summary of the method: as §1

GCIY (Gastric Carcinoma) = assay: as above
Summary of the method: as §1

[3] = test system: GRANTA-519 (B-Cell Non-Hodgkin's Lymphoma); assay: as above
Summary of the method: as §1

[4] = test system: JURL-MK1 (Chronic Myelogenous Leukemia); assay: as above
Summary of the method: as §1

[5] = test system: MRK-nu-1 (Breast Carcinoma); assay: as above
Summary of the method: as §1

[6] = test system: NCI-H1048 (Small Cell Lung Carcinoma); assay: as above
Summary of the method: as §1

[7] = test system: NCI-H1435 (Non-Small Cell Lung Carcinoma); assay: as above
Summary of the method: as §1

[8] = test system: NCI-H1944 (Lung Adenocarcinoma); assay: as above
Summary of the method: as §1

[9] = test system: NCI-H1975 (Lung Adenocarcinoma); assay: as above
Summary of the method: as §1

[10] = test system: NTERA-2-cl-D1 (Other Solid Carcinomas); assay: as above
Summary of the method: as §1

[11] = test system: OVKATE (Ovarian Carcinoma); assay: as above
Summary of the method: as §1

[12] = test system: RPMI-8402 (T-Lymphoblastic Leukemia); assay: as above
Summary of the method: as §1

RVH-421 (Melanoma) [13] = assay: as above
Summary of the method: as §1

[14] = test system: SBC-3 (Small Cell Lung Carcinoma); assay: as above
Summary of the method: as §1

[15] = test system: SNU-1 (Gastric Carcinoma); assay: as above
Summary of the method: as §1

RVH-421 (Melanoma) [16] = assay: combination Emax (second highest fraction inhibited in the dose matrix, 72 h); higher = more inhibition; extreme values may be limits of the assay
Summary of the method: as §1
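For Bliss excess, mean over the matrix in this document: after 72 h of two-drug dosing.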

Structure (SMILES)	Bliss excess [1]	Bliss excess [2]	Bliss excess (GCIY (Gastric Carcinoma))	Bliss excess [3]	Bliss excess [4]	Bliss excess [5]	Bliss excess [6]	Bliss excess [7]	Bliss excess [8]	Bliss excess [9]	Bliss excess [10]	Bliss excess [11]	Bliss excess [12]	Bliss excess (RVH-421 (Melanoma) [13])	Bliss excess [14]	Bliss excess [15]	combination Emax (RVH-421 (Melanoma) [16])
C=CCn1c(=O)c2cnc(Nc3ccc(N4CCN(C)CC4)cc3)nc2n1-c1cccc(C(C)(C)O)n1 [AZD1775] + O=C(c1cc(Cc2n[nH]c(=O)c3ccccc23)ccc1F)N1CCN(C(=O)C2CC2)CC1 [Olaparib] (first compound max 1 µM, partner max 10 µM)	-0.0189	0.0043	-0.0521	-0.0679	0.001	-0.0311	-0.0389	0.0211	-0.043	-0.0248	0.107	-0.0316	0.0113	-0.105	0.0028	-0.0425	0.253
CCN(CCO)CCCOc1ccc2c(Nc3cc(CC(=O)Nc4cccc(F)c4)[nH]n3)ncnc2c1 [AZD2811] + C=CCn1c(=O)c2cnc(Nc3ccc(N4CCN(C)CC4)cc3)nc2n1-c1cccc(C(C)(C)O)n1 [AZD1775] (first compound max 1 µM, partner max 1 µM)	0.0053	0.0733	0.0503	-0.013	-0.0001	0.0147	0.0662	-0.0181	0.0422	0.0001	0.192	-0.0565	-0.0544	-0.0694	0.11	0.0679	0.0949
CCN(CCO)CCCOc1ccc2c(Nc3cc(CC(=O)Nc4cccc(F)c4)[nH]n3)ncnc2c1 [AZD2811] + C[C@@H]1COCCN1C2=NC(=NC(=C2)C3(CC3)[S@](=N)(=O)C)C4=C5C=CNC5=NC=C4 [AZD6738] (first compound max 1 µM, 7x7, partner max 10 µM)	-0.0839	0.0457	-0.0326	-0.0269	0.027	-0.077	-0.0304	-0.0311	-0.0415	0.0002	-0.065	-0.0822	-0.0312	-0.0815	-0.0369	0.0129	0.172
CCN(CCO)CCCOc1ccc2c(Nc3cc(CC(=O)Nc4cccc(F)c4)[nH]n3)ncnc2c1 [AZD2811] + O=C(c1cc(Cc2n[nH]c(=O)c3ccccc23)ccc1F)N1CCN(C(=O)C2CC2)CC1 [Olaparib] (first compound max 1 µM, 7x7, partner max 10 µM)	-0.0849	0.104	-0.0066	0.0274	0.073	-0.0037	-0.0161	0.0111	0.0069	0.0034	0.066	-0.0481	-0.0279	-0.0685	0.0475	0.0233	0.176
CN(CCO)CC[C@H](CSc1ccccc1)Nc1ccc(S(=O)(=O)NC(=O)c2ccc(N3CCC([C@@H](O)c4ccccc4-c4ccc(Cl)cc4)CC3)cc2)cc1S(=O)(=O)C(F)(F)F [AZD4320] + C=CCn1c(=O)c2cnc(Nc3ccc(N4CCN(C)CC4)cc3)nc2n1-c1cccc(C(C)(C)O)n1 [AZD1775] (first compound max 1 µM, partner max 1 µM)	0.0695	-0.0249	0.0735	0.0729	0.0098	-0.0295	0.27	0.0482	0.0312	0.0195	0.13	0.0271	0.0269	0.0274	-0.0172	0.127	0.442
CN(CCO)CC[C@H](CSc1ccccc1)Nc1ccc(S(=O)(=O)NC(=O)c2ccc(N3CCC([C@@H](O)c4ccccc4-c4ccc(Cl)cc4)CC3)cc2)cc1S(=O)(=O)C(F)(F)F [AZD4320] + CN(C)CCCOc1ccc(-c2ccc3ncc4c(c3c2)n(C2CCOCC2)c(=O)n4C)cn1 [AZD0156] (first compound max 1 µM, 7x7, partner max 1 µM)	-0.0231	-0.0133	0.0237	0.007	-0.0368	-0.0133	0.0406	-0.0269	-0.0289	-0.0414	-0.0692	-0.104	0.0188	-0.0254	-0.0809	0.0192	0.164
CN(CCO)CC[C@H](CSc1ccccc1)Nc1ccc(S(=O)(=O)NC(=O)c2ccc(N3CCC([C@@H](O)c4ccccc4-c4ccc(Cl)cc4)CC3)cc2)cc1S(=O)(=O)C(F)(F)F [AZD4320] + Cn1cnc2c(F)c(Nc3ccc(Br)cc3Cl)c(C(=O)NOCCO)cc21 [Selumetinib] (first compound max 1 µM, 7x7, partner max 3 µM)	-0.0611	0.0037	0.0199	0.0155	0.0111	-0.0013	0.0198	0.0507	0.0427	0.0125	-0.0415	-0.0247	-0.0351	0.106	-0.0148	0.0212	0.643
Cc1c2c(nn1C)CSCc1cc(n(C)n1)CSc1cc(c3ccccc3c1)OCCCc1c(C(=O)O)n(C)c3c-2c(Cl)ccc13 [AZD5991] + C=CCn1c(=O)c2cnc(Nc3ccc(N4CCN(C)CC4)cc3)nc2n1-c1cccc(C(C)(C)O)n1 [AZD1775] (first compound max 1 µM, partner max 1 µM)	-0.0027	-0.0124	0.0035	-0.055	0.0395	-0.0285	0.0002	0.0568	-0.0472	-0.0523	0.0383	-0.0123	-0.0295	0.0088	-0.0043	-0.0237	0.248
Cc1c2c(nn1C)CSCc1cc(n(C)n1)CSc1cc(c3ccccc3c1)OCCCc1c(C(=O)O)n(C)c3c-2c(Cl)ccc13 [AZD5991] + CC1(C)CCC(CN2CCN(c3ccc(C(=O)NS(=O)(=O)c4ccc(NCC5CCOCC5)c([N+](=O)[O-])c4)c(Oc4cnc5[nH]ccc5c4)c3)CC2)=C(c2ccc(Cl)cc2)C1 [Venetoclax] (first compound max 1 µM, 7x7, partner max 1 µM)	0.0429	0.0382	0.0076	0.0312	-0.0133	0.0139	0.049	0.0174	0.0091	-0.0053	0.0217	-0.0527	0.035	-0.0237	0.0727	0.136	0.358
Cc1c2c(nn1C)CSCc1cc(n(C)n1)CSc1cc(c3ccccc3c1)OCCCc1c(C(=O)O)n(C)c3c-2c(Cl)ccc13 [AZD5991] + CCN(CCO)CCCOc1ccc2c(Nc3cc(CC(=O)Nc4cccc(F)c4)[nH]n3)ncnc2c1 [AZD2811] (first compound max 1 µM, 7x7, partner max 1 µM)	-0.0413	0.263	-0.0183	0.109	0.098	0.0321	0.0766	0.0411	0.0457	0.0047	0.0704	-0.09	0.0412	-0.0055	0.0082	0.0586	0.214
Cc1c2c(nn1C)CSCc1cc(n(C)n1)CSc1cc(c3ccccc3c1)OCCCc1c(C(=O)O)n(C)c3c-2c(Cl)ccc13 [AZD5991] + C[C@@H](Nc1cc(F)cc(F)c1)c1cc(C(=O)N(C)C)cc2c(=O)cc(N3CCOCC3)oc12 [AZD8186] (first compound max 1 µM, 7x7, partner max 3 µM)	-0.0131	0.0234	-0.0611	-0.0444	-0.0112	0.0152	0.0019	0.0131	-0.0141	-0.0203	0.0081	-0.0298	0.0272	-0.0204	-0.0341	0.002	0.517
Cc1c2c(nn1C)CSCc1cc(n(C)n1)CSc1cc(c3ccccc3c1)OCCCc1c(C(=O)O)n(C)c3c-2c(Cl)ccc13 [AZD5991] + Cn1cnc2c(F)c(Nc3ccc(Br)cc3Cl)c(C(=O)NOCCO)cc21 [Selumetinib] (first compound max 1 µM, 7x7, partner max 3 µM)	-0.0672	0.0545	-0.0633	-0.0162	0.0259	0.0052	-0.0224	0.0727	0.027	0.0208	0.0115	-0.0724	0.0125	-0.0194	-0.0674	0.0926	0.449
C[C@@H]1COCCN1c1cc(C2([S@](C)(=N)=O)CC2)nc(-c2ccnc3[nH]ccc23)n1 [AZD6738] + O=C(c1cc(Cc2n[nH]c(=O)c3ccccc23)ccc1F)N1CCN(C(=O)C2CC2)CC1 [Olaparib] (first compound max 10 µM, 7x7, partner max 10 µM)	0.0169	-0.0239	-0.0433	-0.0308	-0.021	0.0457	0.0581	0.0203	0.0194	-0.0088	0.0898	-0.0115	0.013	-0.0324	-0.0328	-0.0358	0.215
CC(=O)Nc1cccc(-n2c(=O)n(C3CC3)c(=O)c3c(Nc4ccc(I)cc4F)n(C)c(=O)c(C)c32)c1 [Trametinib] + Cc1nc(-c2cn3c(n2)-c2ccc(-c4cnn(C(C)(C)C(N)=O)c4)cc2OCC3)n(C(C)C)n1 [Taselisib] (first compound max 1 µM, 7x7, partner max 10 µM)	-0.0503	0.0217	0.0252	-0.0007	-0.0107	0.0116	0.245	0.107	0.175	0.177	0.022	0.113	0.0185	0.0732	0.0858	0.202	0.638
CC1(C)CCC(CN2CCN(c3ccc(C(=O)NS(=O)(=O)c4ccc(NCC5CCOCC5)c([N+](=O)[O-])c4)c(Oc4cnc5[nH]ccc5c4)c3)CC2)=C(c2ccc(Cl)cc2)C1 [Venetoclax] + C1CN(CCC1(C(=O)N[C@@H](CCO)C2=CC=C(C=C2)Cl)N)C3=NC=NC4=C3C=CN4 [Capivasertib] (first compound max 1 µM, 7x7, partner max 3 µM)	0.0132	-0.0103	-0.0778	0.0036	-0.0259	-0.0212	0.0124	0.0014	-0.0343	-0.0362	-0.0574	-0.0458	-0.0544	-0.0471	-0.0457	-0.0535	0.351
